Results: publication PMC6616073 (Frontiers in Pharmacology, 2019)
Where two headings read alike, the source gives them in different places. Positions of bridges follow the written chain, without caps; N, C: chain ends. Residues, ends and D or L forms follow the SMILES beside them.

Legend:
[1] = target: membrane-bound Torpedo californica nAChR (Tetronarce californica, UniProt P02710+P02712+P02714+P02718); assay: biochemical; format: binding
[2] = target: T1, rat α9α10 nAChR (Rattus norvegicus, UniProt P43144+Q9JLB5); assay: Two-electrode voltage clamp, rat α9α10 nAChR in Xenopus oocytes; format: cell-based; settings: X. laevis oocytes, 30 μM acetylcholine, 5 min pre-incubation with peptide, −60 mV; n = 3; read-out: IC50, inhibition of acetylcholine-induced ion currents in rat α9α10 nAChR
T1 construct: expressed in transfected cells; host or cells: Xenopus laevis oocytes injected with cRNA (pGEMHE vector)
Method: Oocytes were removed from mature, anesthetized Xenopus laevis by dissecting abdomen and removing necessary amount of ovarium. Stage V–VI Xenopus laevis oocytes were defolliculated with 2 mg/ml collagenase type I (Life Technologies, Camarillo, USA) at room temperature (21–24°C) for 2 h in Ca^2+-free Barth’s solution composed of (in mM) 88 NaCl, 1.1 KCl, 2.4 NaHCO3, 0.8 MgSO4, and 15 HEPES-NaOH at pH 7.6. Oocytes were injected with 9.2 ng of rat or human nAChR α9 and α10 cRNA (in a ratio 1:1) or human α3 and β2 or α4 and β2 cRNA (in a ratio 1:1). Oocytes were incubated at 18°C for 2–4 days before electrophysiological recordings in Barth’s solution composed of (in mM) 88 NaCl, 1.1 KCl, 2.4 NaHCO3, 0.3 Ca(NO3)2, 0.4 CaCl2, 0.8 MgSO4, and 15 HEPES-10NaOH at pH 7.6, supplemented with 40 μg/ml gentamicin and 100 μg/ml ampicillin. Recordings were performed using turbo TEC-03X amplifier (NPI Electronic, Tamm, Germany) and WinWCP recording software (University of Strathclyde, Glasgow, UK). The glass recording electrodes were filled with 3 M KCl and the electrode resistance was 0.1−0.5 MΩ. Membrane potential was clamped at −60 mV. […] The peak current amplitudes of ACh-induced responses were measured before (ACh alone) and after the preincubation of oocytes with peptides. […]

[3] = target: T2, AChBP from Aplysia californica (Aplysia californica, UniProt Q8WSF8); assay: biochemical; format: binding
T2 construct: made in house

[4] = target: T3, human α9α10 nAChR (Homo sapiens, UniProt Q9GZZ6+Q9UGM1); assay: Two-electrode voltage clamp, human α9α10 nAChR in Xenopus oocytes; format: cell-based; settings: for inhibition of human α9α10 nAChR (result in words): concentrations as high as 50 µM, Xenopus oocytes, data not shown
T3 construct: expressed in transfected cells; host or cells: Xenopus laevis oocytes injected with cRNA (pT7TS vector)
Method: (§1) Oocytes were removed from mature, anesthetized Xenopus laevis by dissecting abdomen and removing necessary amount of ovarium. Stage V–VI Xenopus laevis oocytes were defolliculated with 2 mg/ml collagenase type I (Life Technologies, Camarillo, USA) at room temperature (21–24°C) for 2 h in Ca^2+-free Barth’s solution composed of (in mM) 88 NaCl, 1.1 KCl, 2.4 NaHCO3, 0.8 MgSO4, and 15 HEPES-NaOH at pH 7.6. Oocytes were injected with 9.2 ng of rat or human nAChR α9 and α10 cRNA (in a ratio 1:1) or human α3 and β2 or α4 and β2 cRNA (in a ratio 1:1). Oocytes were incubated at 18°C for 2–4 days before electrophysiological recordings in Barth’s solution composed of (in mM) 88 NaCl, 1.1 KCl, 2.4 NaHCO3, 0.3 Ca(NO3)2, 0.4 CaCl2, 0.8 MgSO4, and 15 HEPES-10NaOH at pH 7.6, supplemented with 40 μg/ml gentamicin and 100 μg/ml ampicillin. Recordings were performed using turbo TEC-03X amplifier (NPI Electronic, Tamm, Germany) and WinWCP recording software (University of Strathclyde, Glasgow, UK). The glass recording electrodes were filled with 3 M KCl and the electrode resistance was 0.1−0.5 MΩ. Membrane potential was clamped at −60 mV. Oocytes were briefly washed with Ba^2+ Ringer’s solution ([Fuchs and Murrow, 1992]) composed of (in mM) 115 NaCl, 2.5 KCl, 1.8 BaCl2, 10 HEPES at pH 7.2, followed by three applications of 10 μM acetylcholine (ACh). Washout with Ba^2+ Ringer’s was done for 5 min between ACh applications. Oocytes were preincubated with various concentrations of Ly6 peptides for 5 min followed by their co-application with ACh. To induce ion current, we used ACh in the concentration range from 10 to 30 μM. The peak current amplitudes of ACh-induced responses were measured before (ACh alone) and after the preincubation of oocytes with peptides. The ratio between these two measurements was used to assess the activity of the tested compounds. In the experiments with α3β2 and α4β2, the above technique was also used, except that oocytes were washed in Barth`s solution. All control experiments were performed on the same day.
Rat α9 and α10 cDNAs was cloned in a pGEMHE vector; human α9, α10, α3, and β2 cDNAs were derived from pT7TS vector. Human α4 was cloned in pSP64 vector. Plasmid pT7TS constructs of human nAChR α9 and α10 subunits and human α3 and β2 subunits were linearized with XbaI restriction enzymes (NEB, Ipswich, USA). pSP64 vector was linearized with BamH1 restriction enzymes (NEB, Ipswich, USA). Rat α9 and α10 plasmids were linearized using NheI (NEB, Ipswich, USA). All plasmid constructs were sequencing before mRNA synthesis. […]

[5] = target: human α7 nAChR (Homo sapiens, UniProt P36544); assay: cell-based; format: binding
[6] = test system: human α3β2 nAChR; assay: Two-electrode voltage clamp, human α3β2 nAChR in Xenopus oocytes; format: cell-based; settings: X. laevis oocytes; for activity on ion currents in α3β2 nAChR (result in words): 30 μM acetylcholine, 30 µM peptide in text, 50 μM in Figure 4, n = 3 or 5
Method: as §1, with “day. […]” for “day.”

[7] = […], 90 min with peptide + 5 min with radioligand, 20 mM Tris-HCl pH 8.0, 1 mg/ml BSA, mean (95% CI), three to four independent experiments, read-out: IC50, μM (95%CI) T. californica
[8] = […], 90 min with peptide + 5 min with radioligand, three to four independent experiments, read-out: IC50, μM (95%CI) AChBP

membrane-bound Torpedo californica nAChR, sequence (P02714 18-506): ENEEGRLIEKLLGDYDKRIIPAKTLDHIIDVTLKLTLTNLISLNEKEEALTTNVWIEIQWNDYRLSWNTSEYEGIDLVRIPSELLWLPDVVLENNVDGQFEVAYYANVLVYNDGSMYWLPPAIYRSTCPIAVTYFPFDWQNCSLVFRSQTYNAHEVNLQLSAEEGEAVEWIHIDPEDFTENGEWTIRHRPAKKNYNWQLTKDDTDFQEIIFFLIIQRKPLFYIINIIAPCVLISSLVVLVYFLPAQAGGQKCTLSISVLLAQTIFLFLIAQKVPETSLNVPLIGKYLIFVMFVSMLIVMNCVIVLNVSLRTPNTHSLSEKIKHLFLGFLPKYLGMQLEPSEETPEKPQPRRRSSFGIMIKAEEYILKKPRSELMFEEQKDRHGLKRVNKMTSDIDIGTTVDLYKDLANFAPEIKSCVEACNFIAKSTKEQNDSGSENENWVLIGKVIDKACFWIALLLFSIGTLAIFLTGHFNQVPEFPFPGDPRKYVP
membrane-bound Torpedo californica nAChR, sequence (P02710 25-461): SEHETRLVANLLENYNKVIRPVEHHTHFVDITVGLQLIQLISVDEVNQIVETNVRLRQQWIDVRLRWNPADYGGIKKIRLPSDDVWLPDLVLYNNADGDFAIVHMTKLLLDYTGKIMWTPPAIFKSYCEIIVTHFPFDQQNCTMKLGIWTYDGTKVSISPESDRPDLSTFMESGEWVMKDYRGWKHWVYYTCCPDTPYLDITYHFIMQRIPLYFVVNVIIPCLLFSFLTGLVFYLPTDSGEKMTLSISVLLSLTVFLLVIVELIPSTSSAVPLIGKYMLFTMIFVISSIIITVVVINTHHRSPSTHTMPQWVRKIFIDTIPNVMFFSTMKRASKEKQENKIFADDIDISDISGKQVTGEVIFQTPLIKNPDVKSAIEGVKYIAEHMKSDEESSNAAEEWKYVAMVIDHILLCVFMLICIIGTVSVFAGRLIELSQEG
membrane-bound Torpedo californica nAChR, sequence (P02718 22-522): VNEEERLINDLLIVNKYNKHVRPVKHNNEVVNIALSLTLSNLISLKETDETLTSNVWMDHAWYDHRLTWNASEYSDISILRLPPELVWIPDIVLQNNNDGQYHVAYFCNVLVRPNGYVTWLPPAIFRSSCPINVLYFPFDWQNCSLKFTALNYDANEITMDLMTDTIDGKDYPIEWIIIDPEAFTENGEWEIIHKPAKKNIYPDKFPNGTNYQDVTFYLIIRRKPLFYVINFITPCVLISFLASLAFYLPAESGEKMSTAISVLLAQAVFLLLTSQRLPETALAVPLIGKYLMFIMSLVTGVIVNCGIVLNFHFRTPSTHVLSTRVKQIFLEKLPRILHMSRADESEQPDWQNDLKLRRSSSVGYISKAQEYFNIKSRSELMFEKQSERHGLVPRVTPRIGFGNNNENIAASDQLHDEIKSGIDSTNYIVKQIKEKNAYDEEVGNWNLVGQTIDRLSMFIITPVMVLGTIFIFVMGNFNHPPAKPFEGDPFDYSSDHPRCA
membrane-bound Torpedo californica nAChR, sequence (P02712 25-493): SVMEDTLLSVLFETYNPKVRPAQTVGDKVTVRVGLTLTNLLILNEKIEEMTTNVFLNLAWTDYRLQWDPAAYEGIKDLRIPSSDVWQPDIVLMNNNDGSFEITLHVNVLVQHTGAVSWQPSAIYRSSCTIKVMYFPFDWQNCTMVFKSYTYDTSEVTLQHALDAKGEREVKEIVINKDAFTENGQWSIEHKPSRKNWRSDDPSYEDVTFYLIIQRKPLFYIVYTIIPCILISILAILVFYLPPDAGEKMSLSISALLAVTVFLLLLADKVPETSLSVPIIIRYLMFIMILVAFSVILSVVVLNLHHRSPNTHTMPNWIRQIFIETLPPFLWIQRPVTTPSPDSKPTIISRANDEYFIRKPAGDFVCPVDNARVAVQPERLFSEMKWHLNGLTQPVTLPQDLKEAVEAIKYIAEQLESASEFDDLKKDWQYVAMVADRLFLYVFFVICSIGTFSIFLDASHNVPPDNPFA
T3 sequence (Q9UGM1 26-479 limits assumed): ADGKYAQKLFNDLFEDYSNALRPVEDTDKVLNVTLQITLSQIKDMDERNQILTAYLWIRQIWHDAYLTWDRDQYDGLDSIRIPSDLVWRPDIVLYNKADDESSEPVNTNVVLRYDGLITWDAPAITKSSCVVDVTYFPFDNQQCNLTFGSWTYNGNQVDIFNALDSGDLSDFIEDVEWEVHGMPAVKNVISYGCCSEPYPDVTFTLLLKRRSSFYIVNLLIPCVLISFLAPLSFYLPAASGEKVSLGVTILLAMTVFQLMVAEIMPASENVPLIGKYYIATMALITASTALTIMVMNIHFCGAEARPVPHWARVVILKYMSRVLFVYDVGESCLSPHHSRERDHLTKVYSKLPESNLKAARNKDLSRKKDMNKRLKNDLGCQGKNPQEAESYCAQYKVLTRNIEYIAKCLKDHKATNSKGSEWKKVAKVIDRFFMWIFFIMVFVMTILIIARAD
T3 sequence (Q9GZZ6 25-450): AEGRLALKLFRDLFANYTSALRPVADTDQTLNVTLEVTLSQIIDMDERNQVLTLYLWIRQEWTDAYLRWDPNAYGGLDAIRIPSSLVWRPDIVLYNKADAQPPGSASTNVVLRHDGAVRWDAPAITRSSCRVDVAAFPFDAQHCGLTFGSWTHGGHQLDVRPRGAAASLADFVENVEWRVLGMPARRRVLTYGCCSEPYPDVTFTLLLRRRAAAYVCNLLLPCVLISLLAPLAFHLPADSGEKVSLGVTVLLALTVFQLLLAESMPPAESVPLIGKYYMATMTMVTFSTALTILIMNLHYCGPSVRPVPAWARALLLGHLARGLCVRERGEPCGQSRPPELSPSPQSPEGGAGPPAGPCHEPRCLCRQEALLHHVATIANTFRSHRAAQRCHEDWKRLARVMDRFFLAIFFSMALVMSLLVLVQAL
T2 sequence (Q8WSF8 entry or part of it): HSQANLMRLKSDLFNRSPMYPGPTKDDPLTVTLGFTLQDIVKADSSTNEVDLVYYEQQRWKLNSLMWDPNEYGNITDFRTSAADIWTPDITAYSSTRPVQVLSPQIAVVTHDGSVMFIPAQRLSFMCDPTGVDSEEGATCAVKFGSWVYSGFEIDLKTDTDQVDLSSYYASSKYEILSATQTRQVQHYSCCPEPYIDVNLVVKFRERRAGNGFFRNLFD
human α7 nAChR, sequence (P36544 23-502): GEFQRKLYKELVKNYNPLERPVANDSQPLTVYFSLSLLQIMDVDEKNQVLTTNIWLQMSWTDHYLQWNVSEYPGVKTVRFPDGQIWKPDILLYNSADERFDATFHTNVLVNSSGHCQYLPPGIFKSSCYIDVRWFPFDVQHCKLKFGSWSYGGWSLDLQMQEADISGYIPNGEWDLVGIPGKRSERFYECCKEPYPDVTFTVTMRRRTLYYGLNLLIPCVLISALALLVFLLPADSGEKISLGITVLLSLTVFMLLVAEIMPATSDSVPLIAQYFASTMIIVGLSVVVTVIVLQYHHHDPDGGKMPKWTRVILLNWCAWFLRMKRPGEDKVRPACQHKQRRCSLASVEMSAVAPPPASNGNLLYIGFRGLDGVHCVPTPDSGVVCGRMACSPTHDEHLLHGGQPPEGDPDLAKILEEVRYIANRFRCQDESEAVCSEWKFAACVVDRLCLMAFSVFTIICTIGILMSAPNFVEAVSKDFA
T1 sequence (Q9JLB5 25-447): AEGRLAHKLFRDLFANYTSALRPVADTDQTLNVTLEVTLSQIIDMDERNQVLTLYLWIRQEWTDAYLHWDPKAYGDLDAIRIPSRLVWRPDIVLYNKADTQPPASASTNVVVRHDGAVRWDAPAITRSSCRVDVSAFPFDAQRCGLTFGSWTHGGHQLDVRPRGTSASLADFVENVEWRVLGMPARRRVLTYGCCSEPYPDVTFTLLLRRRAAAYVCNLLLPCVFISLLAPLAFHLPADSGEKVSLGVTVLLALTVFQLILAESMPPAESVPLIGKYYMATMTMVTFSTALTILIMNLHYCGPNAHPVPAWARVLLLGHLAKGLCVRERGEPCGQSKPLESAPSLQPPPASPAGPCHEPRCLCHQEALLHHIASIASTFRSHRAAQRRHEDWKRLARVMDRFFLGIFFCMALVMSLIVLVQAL
T1 sequence (P43144 26-479): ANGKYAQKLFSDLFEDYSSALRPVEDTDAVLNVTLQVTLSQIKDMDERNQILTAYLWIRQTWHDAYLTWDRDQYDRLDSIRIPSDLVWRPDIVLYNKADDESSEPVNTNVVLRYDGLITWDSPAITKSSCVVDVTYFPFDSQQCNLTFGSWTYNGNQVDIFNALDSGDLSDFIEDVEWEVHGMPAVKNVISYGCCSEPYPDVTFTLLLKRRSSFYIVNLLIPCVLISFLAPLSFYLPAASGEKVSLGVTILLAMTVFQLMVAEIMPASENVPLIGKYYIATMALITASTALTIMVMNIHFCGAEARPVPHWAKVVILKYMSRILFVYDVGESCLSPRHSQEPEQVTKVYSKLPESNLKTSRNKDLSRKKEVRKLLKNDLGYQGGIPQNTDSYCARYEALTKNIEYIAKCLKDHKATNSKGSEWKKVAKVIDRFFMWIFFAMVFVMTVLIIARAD

## CSCC[C@@H]1NC(=O)[C@H](CCCNC(=N)N)NC(=O)[C@H]([C@@H](C)O)NC(=O)[C@@H]2CCCN2C(=O)[C@H]([C@@H](C)O)NC(=O)[C@H](Cc2ccc(O)cc2)NC(=O)[C@H](Cc2ccc(O)cc2)NC(=O)[C@H]([C@@H](C)O)NC(=O)[C@H](CCCNC(=N)N)NC(=O)[C@H]([C@@H](C)O)NC(=O)[C@H]([C@@H](C)O)NC(=O)[C@@H](N)CSSC[C@@H](C(=O)O)NC(=O)[C@H](CCCCN)NC(=O)[C@H](CO)NC(=O)[C@H](C(C)C)NC(=O)[C@H](CCCCN)NC1=O [Lynx1 (1)] (H-CTTRTYYTPTRMKVSKC-OH; disulfide 1-17)
[1]; IC50, μM (95%CI) T. californica
  IC50: 4.9 µM
[2]
  IC50: 27 µM
[3]
  IC50: > 100 µM

## CSCC[C@H](NC(=O)[C@H](CCCNC(=N)N)NC(=O)[C@@H](NC(=O)[C@@H]1CCCN1C(=O)[C@@H](NC(=O)[C@H](Cc1ccc(O)cc1)NC(=O)[C@H](Cc1ccc(O)cc1)NC(=O)[C@@H](NC(=O)[C@H](CCCNC(=N)N)NC(=O)[C@@H](NC(=O)[C@@H](N)[C@@H](C)O)[C@@H](C)O)[C@@H](C)O)[C@@H](C)O)[C@@H](C)O)C(=O)N[C@@H](CCCCN)C(=O)N[C@H](C(=O)N[C@@H](CO)C(=O)N[C@@H](CCCCN)C(=O)O)C(C)C [Lynx1 linear (2)] (H-TTRTYYTPTRMKVSK-OH)
[4]
  IC50: 32.3 µM
[1]; [7]
  IC50: 13.2 µM
[5]; […], 90 min with peptide + 5 min with radioligand, Tris-HCl pH 8.0, mean (95% CI), three to four independent experiments
  IC50: > 180 µM
[3]; [8]
  IC50: > 100 µM

## CSCC[C@@H]1NC(=O)[C@H](CCCNC(=N)N)NC(=O)[C@H]([C@@H](C)O)NC(=O)[C@@H]2CCCN2C(=O)[C@H]([C@@H](C)O)NC(=O)[C@H](Cc2ccc(O)cc2)NC(=O)[C@H](Cc2ccc(O)cc2)NC(=O)[C@H]([C@@H](C)O)NC(=O)[C@H](CCCNC(=N)N)NC(=O)[C@H]([C@@H](C)O)NC(=O)[C@@H](N)CSSC[C@@H](C(=O)O)NC1=O [Lynx1 short (3)] (H-CTRTYYTPTRMC-OH; disulfide 1-12)
[1]; [7]
  IC50: 74.1 µM
[3]; [8]
  IC50: > 100 µM

## CSCC[C@H](NC(=O)[C@H](CCCNC(=N)N)NC(=O)[C@@H](NC(=O)[C@@H]1CCCN1C(=O)[C@@H](NC(=O)[C@H](Cc1ccc(O)cc1)NC(=O)[C@H](Cc1ccc(O)cc1)NC(=O)[C@@H](NC(=O)[C@H](CCCNC(=N)N)NC(=O)[C@@H](NC(=O)[C@@H](N)CS)[C@@H](C)O)[C@@H](C)O)[C@@H](C)O)[C@@H](C)O)C(=O)N[C@@H](CS)C(=O)O [Lynx1 short linear (4)] (H-CTRTYYTPTRMC-OH)
[1]; [7]
  IC50: 15.6 µM
[3]; [8]
  IC50: > 100 µM

## CC(C)C[C@@H]1NC(=O)[C@H]([C@@H](C)O)NC(=O)[C@@H](N)CSSC[C@@H](C(=O)O)NC(=O)[C@H]([C@@H](C)O)NC(=O)[C@H](C(C)C)NC(=O)[C@H](C(C)C)NC(=O)[C@@H]2CCCN2C(=O)[C@H](CO)NC(=O)[C@H](CCC(N)=O)NC(=O)[C@H](CC(N)=O)NC(=O)[C@H](Cc2ccccc2)NC(=O)[C@@H]2CCCN2C(=O)[C@H](Cc2ccc(O)cc2)NC(=O)[C@H](CCC(=O)O)NC(=O)[C@H](C)NC(=O)[C@H](CCC(=O)O)NC(=O)[C@H](C(C)C)NC(=O)[C@H]([C@@H](C)O)NC(=O)[C@H](C(C)C)NC1=O [SLURP1 (6)] (H-CTLVTVEAEYPFNQSPVVTC-OH; disulfide 1-20; N-terminus assumed)
[6]; 50 μM peptide, 30 μM ACh, mean ± SEM, n = 5
  normalized ion current in human α3β2 nAChR (current with ACh alone = 1): 0.74 ± 0.08
[4]
  inhibition of human α9α10 nAChR (result in words): no inhibition

## CC(C)C[C@@H]1NC(=O)[C@H](C(C)C)NC(=O)[C@H](CCCNC(=N)N)NC(=O)[C@H]([C@@H](C)O)NC(=O)[C@H](C)NC(=O)[C@H]([C@@H](C)O)NC(=O)[C@@H](N)CSSC[C@@H](C(=O)O)NC(=O)[C@H]([C@@H](C)O)NC(=O)[C@H](C(C)C)NC(=O)[C@H](CC(C)C)NC(=O)[C@@H]2CCCN2C(=O)[C@H](CC(C)C)NC(=O)[C@H](CC(=O)O)NC(=O)[C@H](CCC(=O)O)NC(=O)[C@H]([C@@H](C)O)NC(=O)[C@H](CC(N)=O)NC(=O)[C@H](CO)NC1=O [SLURP2 (7)] (H-CTATRVLSNTEDLPLVTC-OH; disulfide 1-18; N-terminus assumed)
[6]
  activity on ion currents in α3β2 nAChR (result in words): inactive
[4]
  inhibition of human α9α10 nAChR (result in words): no inhibition

## CSCC[C@@H]1NC(=O)[C@H](CCCNC(=N)N)NC(=O)[C@H](CCCNC(=N)N)NC(=O)[C@H](C(C)C)NC(=O)[C@H](C(C)C)NC(=O)[C@H](CCC(=O)O)NC(=O)[C@H](Cc2ccc(O)cc2)NC(=O)[C@@H]2CCCN2C(=O)[C@H](CO)NC(=O)[C@H](CCCNC(=N)N)NC(=O)[C@H](CCC(N)=O)NC(=O)[C@H](Cc2c[nH]cn2)NC(=O)[C@H](CCCNC(=N)N)NC(=O)[C@H](C(C)C)NC(=O)[C@H](CCSC)NC(=O)[C@H](CCCCN)NC(=O)[C@@H](N)CSSC[C@@H](C(=O)O)NC1=O [SSS (5)] (H-CKMVRHQRSPYEVVRRMC-OH; disulfide 1-18; N-terminus assumed)
[6]
  activity on ion currents in α3β2 nAChR (result in words): inactive
[4]; 100 μM peptide, 25 μM acetylcholine, X. laevis oocytes, n = 3
  inhibition of ion currents in human α9α10 nAChR: 50%
[5]; ratio of IC50 values of the radioligand assay
  fold more active against α7 nAChR than the Lynx1 fragment (1): 10 fold
